Experimental data published in patent publication US12479794B2, “Acetophenone oxime compound and application thereof” (Medshine Discovery Inc., priority 2020, dated 2025).
Marks after values point to notes of the source that are not given here.

Tests used:
S1P3 = molecular target: T1, S1P3 (Homo sapiens, UniProt Q99500); assay: In vitro agonistic activity on S1P3, PathHunter cell line; assay type: cell-based; conditions: PathHunter cells
T1 construct: expressed in transfected cells
Protocol: (§1) Assay Example 5: In Vitro Evaluation of the Agonistic Activity of the Compound of the Present Disclosure on S1P2, S1P3 and S1P4
(§2) Object of the assay: To detect the agonistic activity of the compound on S1P2, S1P3, and S1P4
(§3) • 1. PathHunter cell line was expanded from freezer according to standard procedures. • 2. Cells were seeded into a white 384-well microplate in a total volume of 20 μL and incubated at 37° C. for an appropriate time prior to testing. II. Agonist Assay • 1. For the agonist assay, cells were incubated with a sample to induce a response. • 2. Stock solution was stored in a buffer at a concentration of 5 times the concentration to be tested. • 3. 5 μl of the stock solution sample at a concentration of 5 times the concentration to be tested was added to the cells and incubated at 37° C. or room temperature for 90-180 min with a vehicle concentration of 1%. III. Signal Detection • 1. […] Chemiluminescent Signal detection was performed using a PerkinElmer Envision™ instrument, and the microplate was read after signal generation. […] The activity of the compound was analyzed using the CBIS data analysis suite (ChemInnovation, CA). • 2. For the agonist mode assay, the percent activity was calculated using the following formula: % Activity=100%×(Mean RLU of the Assay Sample−Mean RLU of the Blank Control)/(Mean MAX Control Ligand−Mean RLU of the Blank Control).

[1] = Metabolite identification after incubation in human liver microsomes with NADPH; assay type: in vitro ADME; conditions: 10 μM, 37° C., 1 hour
Protocol: Assay Example 4: Analysis and Identification of Metabolites of the Compound in Human Liver Microsome and Hepatocyte Incubation System
By using high-resolution mass spectrometry, the metabolite produced by the incubation of compound 32B in human liver microsomes and human hepatocytes was found, and identified for its structure; the percentage content of compound 32B and its metabolite was calculated by using LC-UV; and the possible biotransformation pathway of compound 32B in human liver microsomes and human hepatocytes in vitro was studied.
Compound 32B (10 μM) was incubated in a system containing both of human liver microsomes and NADPH at 37° C. for 60 min. 7-ethoxycoumarin (7-EC, 10 μM) was used as a positive control to evaluate the enzymatic metabolic activity in the liver microsome incubation system. The incubated sample was analyzed by LC-UV-HRMS. The structure of each metabolite was resolved and identified based on its primary and secondary mass spectrometry signals and/or comparison with a standard. The relative percentage of the UV-integrated peak area of each metabolite was given through data collected from the sample by LC-UV-HRMS, and the possible structure of the metabolite and its possible metabolic pathway in various genera of liver microsomes were inferred from the mass spectrometry information of the metabolite.

[2] = Pharmacokinetic evaluation in SD rats (iv and oral); assay type: in vivo, Sprague Dawley rats; conditions: 1 mg/kg
Protocol: Assay Example 2: Pharmacokinetic Evaluation of Compounds in Rats
Object of the assay: To evaluate the in vivo pharmacokinetics of the compounds in SD rats
Sprague Dawley rats (male, 200-300 g, 7-9 weeks old, Shanghai SLAC)
The pharmacokinetic characteristics of the compounds in rodents after intravenous injection and oral administration were assayed according to the standard protocol. In the assay, the candidate compounds were formulated into clear solutions and administered to rats by single intravenous injection and oral administration. The vehicle for intravenous injection and oral administration was DMSO and 10% hydroxypropyl β-cyclodextrin in water (DMSO:10% hydroxypropyl β-cyclodextrin in water=5:95). Whole blood samples were collected within 48 hours, and centrifuged at 3000 g for 15 minutes. The supernatant was separated to give plasma samples. 4 times the volume of acetonitrile solution containing internal standard was added to precipitate protein. The resulting mixture was centrifuged and the supernatant was taken out. An equal volume of water was added and the mixture was centrifuged. The supernatant was taken out, and injected as a sample to quantitatively analyze the plasma drug concentration by LC-MS/MS analysis method. The pharmacokinetic parameters, such as peak concentration, time to peak, clearance rate, half-life, area under drug-time curve, bioavailability, etc., were calculated.

S1P4 = molecular target: T2, S1P4 (Homo sapiens, UniProt O95977); assay: In vitro agonistic activity on S1P4, PathHunter cell line; assay type: cell-based; conditions: PathHunter cells
T2 construct: expressed in transfected cells
T2 sequence (O95977 1-384): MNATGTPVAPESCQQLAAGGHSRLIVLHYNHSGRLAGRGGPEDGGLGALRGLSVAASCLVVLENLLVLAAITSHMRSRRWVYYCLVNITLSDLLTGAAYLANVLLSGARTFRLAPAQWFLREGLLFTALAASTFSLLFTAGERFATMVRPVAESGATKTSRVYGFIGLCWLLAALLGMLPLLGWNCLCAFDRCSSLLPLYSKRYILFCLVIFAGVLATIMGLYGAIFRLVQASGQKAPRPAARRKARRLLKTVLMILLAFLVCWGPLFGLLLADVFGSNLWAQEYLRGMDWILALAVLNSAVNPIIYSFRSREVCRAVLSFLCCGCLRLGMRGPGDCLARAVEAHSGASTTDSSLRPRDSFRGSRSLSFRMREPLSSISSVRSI
Protocol: as §1, §2, §3

T1 sequence (Q99500 whole entry): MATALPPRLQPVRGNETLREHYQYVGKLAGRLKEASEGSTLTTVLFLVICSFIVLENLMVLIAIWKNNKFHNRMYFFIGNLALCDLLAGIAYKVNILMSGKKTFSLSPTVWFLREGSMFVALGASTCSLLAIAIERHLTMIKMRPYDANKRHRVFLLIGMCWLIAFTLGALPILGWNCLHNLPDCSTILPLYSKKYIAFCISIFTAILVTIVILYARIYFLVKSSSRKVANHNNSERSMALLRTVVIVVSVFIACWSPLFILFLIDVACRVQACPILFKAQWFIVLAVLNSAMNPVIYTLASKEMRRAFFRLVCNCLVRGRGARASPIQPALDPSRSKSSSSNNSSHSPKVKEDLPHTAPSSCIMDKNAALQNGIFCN

**Q.** Which results are given for `CC(=NOCc1ccc(OC(C)C)c(C(F)(F)F)c1)c1ccc2c(c1)CCC2N1CC(C(=O)O)C1` (single isomer, unassigned) [Compound 32B]?
**A.** EC50 (S1P3): > 300 nM; Metabolites detected [1]: no other metabolite was detected; Relative abundance of the original drug [1]: 100.00%; Half life T1/2 (PO) ([2]; iv 1.0 mg/kg only (head prints PO)): 8.3 h; Area under drug-time curve AUC0-last iv ([2]; iv 1.0 mg/kg): 7483* nM · hr; Clearance rate CL ([2]; iv 1.0 mg/kg): 3.97 mL/min/kg; Distribution in tissue Vdss ([2]; iv 1.0 mg/kg): 2.7 L/kg; EC50 (S1P4): > 300 nM
